Experimental data reported in patent US20250228971A1, “DESIGN AND CONSTRUCTION OF EVOLUTIONARY-GUIDED "SELECTION GENE DRIVE" THERAPY” (THE PENN STATE RESEARCH FOUNDATION, priority 2022, published 2025).

Assays:
[1] = system: mixed wild-type and S2 vCyD BaF3 cells; test: Enzyme-prodrug bystander assay (vCyD, BaF3); type: cell-based, murine; conditions: 1 mM 5-FC
Description: Enzyme-prodrug bystander assays (vCyD and vNfsA). To evaluate the S2 vCyD system, populations of wild-type and cytosine deaminase-expressing BaF3 cells were mixed at defined ratios and seeded at 30k/well in 96-well plates in triplicate, and 1 mM 5-FC was added. Cell viability was measured after 48 hours using CellTiter-Glo and normalized to untreated controls. Similarly, wild-type and S1vEGFRosi-S2vCyD PC9 cells were mixed, seeded at 20k/well, and treated with 1 mM 5-FC.

[2] = system: RET fusion driven cancer cell line; test: Switch 2 sensitivity of cancer cell lines (RET line); type: cell-based
From the text: (§1) Personalize switch 2 designs for different NSCLC tumors. Quantitative models (FIG. 5) have identified the extent of switch 2 bystander driven killing as a key factor in gene drive success. This effect is larger in from spatial systems (2D/3D) (FIG. 10). Pharmacologically, the toxin responsible for the bystander effect must be diffusible and have a half-life on the order of hours to be evolutionarily useful. Prototypes used here meet these transport constraints, but some cancer cell types display differential biological sensitivity to distinct switch 2 metabolites. […] Cell and organoid type specificity in Switch 2 designs is assessed in a larger number of genetically defined NSCLC cell line (FIGS. 8 and 10).

PC9 cell line = test: Switch 2 sensitivity of cancer cell lines (PC9); type: cell-based
From the text: as §1

[3] = system: EGFR+ BaF3 tumors expressing S2 vCyD; test: In vivo cytosine deaminase activity; parameters: species or system mice; conditions: daily dosing of 5-FC
Description: In vivo cytosine deaminase activity. Mice were randomized into three arms (five mice/arm).
Tumors were allowed to grow for 12 days, and then once-daily treatment was initiated. The wild-type arm and one of the S2 vCyD arms received 800 uL 500 mg/kg 5-FC via ip injection. The second S2 vCyD arm received 800 uL vehicle control (sterile PBS). Tumor volumes were measured every other day.

[4] = system: EGFR L858R transformed cell population; test: Prototype dual-switch selection drive in vitro (FIG. 3); type: cell-based
From the text: The dual-switch drive engineers the evolutionary dynamics of an EGFR L858R transformed cell population in vitro. […] Rimiducid is removed to inactivate switch 1 driven drug resistance in the gene drive cell.

[5] = system: S1 vEGFRerl EGFR+ NSCLC PC9 cells; test: Erlotinib dose response in Switch 1 PC9 cells; type: cell-based, human; conditions: erlotinib with or without dimerizer
Description: Drug dose response assays. In general, all 1C50 measurements were conducted similarly. Cells were seeded in 96-well plates at 3k/well triplicate. Adherent cells were given 24 hours before the addition of drug. Cell viability was measured three days after drug treatment using CellTiter-Glo 2.0 (Promega) and luminescence values were normalized to vehicle control conditions.

[6] = system: mixed-population PC9 tumors; test: Gene drive in PC9 tumors in vivo
Description: To test this, mixtures of 50% gene drive and 50% resistant PC9 cells were generated to reflect a possible population structure at the beginning of Switch 2. These pooled populations were grafted in mice. The mice were then treated with Switch 2 drugs (osimertinib and 5-FC) with or without concurrent Switch 1 engagement (dimerizer).
Finally, these findings were performed in a full-term gene drive experiment in vivo.

S1 vEGFRerl BaF3 tumors = test: Engineered Switch 1 BaF3 in vivo model (dimerizer-dependence); parameters: species or system mice; conditions: once-daily dimerizer, range of doses, 12 days
Description: Engineered Switch 1 BaF3 in vivo models. All animal experiments were conducted under a protocol approved by the Institutional Animal Care and Use Committee. In the dimerizer-dependence in vivo experiment, S1 vEGFRerl BaF3 cells were subcutaneously grafted on both flanks (3.5M/flank) of NOD-SCID mice (Jackson Labs). Mice were randomized into four arms (0, 0.1, 1, and 10 mg/kg dimerizer) of 3 mice each. Mice received 100 uL dimerizer or vehicle control (2% Tween in PBS) once daily via intraperitoneal injection. Tumor volumes were measured with calipers following 12 days of treatment.

S1 vEGFRerl BaF3 cells = test: BaF3 dimerizer-dependence assay (growth rate); type: cell-based, murine; conditions: absence of IL-3; range of dimerizer concentrations
Description: BaF3 dimerizer-dependence assays. S1 vEGFRerl BaF3s were seeded in 12-well plates at 100k/well with dimerizer (AP20187, Takara) in triplicate. Cell counts were measured on a hemocytometer every day for four days, and an exponential curve was fit to the data to estimate growth rates.

[7] = system: phospho-EGFR and phospho-ERK; test: Immunoblotting of EGFR/MAPK signaling in PC9 cells; type: cell-based, human; conditions: erlotinib-treated S1 vEGFRerl PC9 cells, dimerizer added
[8] = system: mixed-population EGFR+ BaF3 tumors; test: Gene drive in BaF3 tumors in vivo; parameters: species or system mice; conditions: tumors lacking gene drive cells, daily erlotinib
[9] = system: Early passage wild-type PC9 cells; test: Early passage wild-type PC9 culture in EGFR inhibitors; type: cell-based; conditions: even at high concentrations
[10] = system: PC9 cells transduced with EGFR variant library; type: cell-based, human
[11] = system: pooled sensitive, resistant and immune gene drive PC9 cells; test: Immune gene drive growth tracking in PC9 mixed populations; type: cell-based, human; conditions: lacking gene drive cells
CRISPRko PC9 population = type: cell-based, human
[12] = system: RET+ thyroid carcinoma TPC1 cells; test: RET gene drive growth tracking in TPC1 mixed populations; type: cell-based, human; conditions: absence of gene drive cells, pralsetinib
Description: Gene drive growth tracking. Populations of sensitive, mCherry+ resistant, and GFP+ gene drive cells were mixed together. Except where otherwise noted, mixed populations consisted of 0.5% resistant cells and 5% gene drive cells. Cells were seeded in 24-well plates (1.5M/well for BaF3s and 50k/well for adherent cells) in triplicate, with the exception of the gene-drive titer experiment where 3M/well BaF3s were seeded in 6-well plates in order to maintain sufficient cell numbers for low spike-in conditions. […] For Switch 2 conditions, 500 μM 5-FC replaced dimerizer in the above formulations.
Cell counts were measured every other day. For counts of adherent cells, wells were washed with PBS, trypsinized, and then resuspended in RPMI. Cell suspensions were transferred to microcentrifuge tubes, vortexed, and a small aliquot (6%) was analyzed by flow cytometry (BD Accuri) to get subpopulation cell counts. The remaining cells were spun down (1k g for 5 min), the supernatant was aspirated, and the cell pellet was resuspended in fresh RPMI and seeded onto a new plate. Fresh drug was added immediately. In general, Switch 2 treatment began when the gene drive population exceeded 60% of the day 0 cell counts. Cells were monitored for 2-3 weeks after apparent eradication to ensure that no remaining cells grew back.

[13] = in vivo; cited from earlier work
[14] = system: CD19+ and CD19- PC9 cells; test: Immune bystander assay (vCD19); type: cell-based, human; conditions: co-culture with primary T cells and blinatumomab
Description: Immune bystander assays (vCD19). PBMCs were sourced from Astarte and T cells were expanded using CD3/CD28 dynabeads (1:100 bead: cell ratio). For the immune bystander experiments, CD19+ and CD19-PC9 cells were seeded 1:1 in 24 wells plates at 60k/well. After 24 hours, 1 ng/mL blinatumomab was added to all wells. At the same time, freshly-thawed T cells were added at the appropriate concentration. Each target: effector ratio was conducted in triplicate. After 48 hours, the supernatant and resuspended adherent cells were pooled and analyzed according to the following staining protocol. Cells were spun down (750 g for 3 min) and resuspended in 50 uL Fc block buffer. After a 10 minute incubation, 100 uL antibody mixture (anti-CD3/FITC and anti-CD19/APC) was added. The cell suspension was incubated at 4C for 20 minutes. After three washes in PBS with 1% BSA, the cell suspension was analyzed by flow cytometry.

In the case of `Nc1nc(=O)[nH]cc1F` [5-FC], the “killing in mixed cultures (bystander effect)” value [1] is reported as “significantly higher killing than expected”, the “sensitivity to cytosine deaminase->5-FC pair” value [2] is reported as “highly sensitive” and the “sensitivity to cytosine deaminase>5-FC pair” value (PC9 cell line) is reported as “more modestly sensitive”. The tumor response [3] was “rapid tumor regression” and the “effect on resistant population when switch 2 is induced” value ([4]; 5-FC added, rimiducid removed, erlotinib maintained) was “kills the resistant population”.
For `CC[C@H](C(=O)N1CCCC[C@H]1C(=O)O[C@H](CCc1ccc(OC)c(OC)c1)c1cccc(OCC(=O)NCC(CNC(=O)COc2cccc([C@@H](CCc3ccc(OC)c(OC)c3)OC(=O)[C@@H]3CCCCN3C(=O)[C@@H](CC)c3cc(OC)c(OC)c(OC)c3)c2)CN(C)C)c1)c1cc(OC)c(OC)c(OC)c1` [dimerizer], the “inducible drug resistance phenotype” value [5] was “causes inducible drug resistance”, the time to progression ([6]; 50% gene drive/50% resistant, osimertinib and 5-FC with temporary dimerizer vs without) was “exhibited a longer time to progression” and the tumor growth (S1 vEGFRerl BaF3 tumors) was “stimulated tumor growth”. The “growth of S1 vEGFRerl BaF3 cells” value (S1 vEGFRerl BaF3 cells) was “Stimulated growth” and the “MAPK signaling (western blot)” value [7] was “rescues MAPK signaling”.
In the case of `C#Cc1cccc(Nc2ncnc3cc(OCCOC)c(OCCOC)cc23)c1` [erlotinib], the tumor dynamics [8] is reported as “initially regressed and then relapsed”, the population response [9] is reported as “initial regression followed by rapid outgrowth” and the “effect on sensitive EGFR-L858R+ transformed cells” value [4] is reported as “killed”.
In the case of `C=CC(=O)Nc1cc(Nc2nccc(-c3cn(C)c4ccccc34)n2)c(OC)cc1N(C)CCN(C)C` [osimertinib], the “time of treatment to osimertinib resistance” value [10] is reported as 2-3 weeks, the “outcome of mixed population” value [11] is reported as “Resistance emerged” and the population response [9] is reported as “initial regression followed by rapid outgrowth”. The tumor response ([6]; mouse, in vivo) was “eventually became refractory to osimertinib treatment” and the population dynamics (CRISPRko PC9 population) was “initial decrease in population size, followed by the outgrowth of resistance”.
For `CO[C@]1(C(=O)N[C@@H](C)c2ccc(-n3cc(F)cn3)nc2)CC[C@H](c2nc(C)cc(Nc3cc(C)[nH]n3)n2)CC1` [pralsetinib], the “outcome of mixed population” value [12] was “selected for pre-existing G810R resistance”.
For `CC[C@H](C(=O)N1CCCC[C@H]1C(=O)O[C@H](CCc1ccc(OC)c(OC)c1)c1cccc(OCC(=O)NCCNC(=O)COc2cccc([C@@H](CCc3ccc(OC)c(OC)c3)OC(=O)[C@@H]3CCCCN3C(=O)[C@@H](CC)c3cc(OC)c(OC)c(OC)c3)c2)c1)c1cc(OC)c(OC)c(OC)c1` [rimiducid], the clinical exposure [13] is given as 0.1 to 1000 nM and the “effect of rimiducid-induced gene drive population on pre-existing resistance” value ([4]; switch 1, erlotinib maintained) is given as “inhibits the growth of pre-existing resistance”.
With “blinatumomab: bispecific CD3/CD19 T cell engager” the “effect on S2 vCD19 (antigen-positive) cells” value [14] was “targeted by the T cells” and the “effect on wild-type, antigen-negative cells (immune bystander activity)” value [14] was “affected as well”.
